≈ marks a conversion by molar mass, not a printed value. Where two headings read alike, the source gives them in different places.
Key:
Settings in all cases: Klebsiella pneumoniae
[1] = test system: K. pneumoniae NVT1001 ΔramRΔompK35/36 mutant and its revertants; assay: Etest MIC, ΔramRΔompK35/36 mutant and its revertants (Table 7); format: cell-based
[2] = test system: K. pneumoniae NVT1001 and its ΔompK35/36 and/or ΔramR mutants; assay: Etest MIC, OmpK35/36 loss and AcrAB-TolC overexpression (ΔramR) strains (Table 6); format: cell-based, Klebsiella pneumoniae
Procedure, shortened: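 Etest strips per kit instructions; off-scale intermediate readings rounded upward to the nearest two-fold concentration. Broth microdilution (CLSI) for ceftazidime, cefotaxime only. Breakpoints: CLSI 2017 generally, CLSI 2015 for cephalothin, EUCAST 2017 for moxifloxacin.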

[3] = test system: K. pneumoniae NVT1001 strains with carbapenemase plasmids; assay: Etest MIC of β-lactams, OmpK35/36 loss, ΔramR and/or carbapenemase (Table 9); format: cell-based, Klebsiella pneumoniae
Procedure, shortened: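 Etest MICs, with values between standard dilutions rounded up to the next two-fold step, were measured in K. pneumoniae NVT1001 carrying PCR-cloned resistance genes on pACYC177 or pACYC184 plasmids. Interpretation used CLSI 2017 breakpoints, CLSI 2015 for cephalothin and EUCAST 2017 for moxifloxacin. For the blaOXA-48 strain, ceftazidime and cefotaxime were additionally tested by CLSI broth microdilution.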

Structure (SMILES): CC(C)(O/N=C(\C(=O)N[C@@H]1C(=O)N2C(C(=O)[O-])=C(C[n+]3ccccc3)CS[C@H]12)c1csc(N)n1)C(=O)O [Ceftazidime]
- MIC ([1]; ΔramRΔompK35/36::ompK35/36 revertant): 2 µg/mL
- MIC ([1]; ΔramRΔompK35/36::ompK35 revertant): 2 µg/mL
- MIC ([1]; ΔramRΔompK35/36::ompK36 revertant): 2 µg/mL
- MIC ([1]; ΔramRΔompK35/36::ramR revertant): 1 µg/mL
- MIC ([1]; ΔramRΔompK35/36::ramR::ompK35/36 revertant): 0.25 µg/mL
- MIC ([1]; ΔramRΔompK35/36::ramR::ompK35 revertant): 0.25 µg/mL
- MIC ([1]; ΔramRΔompK35/36::ramR::ompK36 revertant): 1 µg/mL
- MIC ([1]; ΔramRΔompK35/36 mutant): 2 µg/mL
- MIC ([2]; WT, NVT1001, read-out: MIC): 0.25 µg/mL (≈ 0.457 µM)
- MIC ([2]; Δ35, ΔompK35 mutant): 0.5 µg/mL (≈ 0.915 µM)
- MIC ([2]; Δ35/36, ΔompK35/36 mutant): 1 µg/mL (≈ 1.83 µM)
- MIC ([2]; Δ36, ΔompK36 mutant): 0.5 µg/mL (≈ 0.915 µM)
- MIC ([2]; ΔramR mutant): 2 µg/mL (≈ 3.66 µM)
- MIC ([2]; ΔramRΔ35, ΔramRΔompK35 mutant): 2 µg/mL (≈ 3.66 µM)
- MIC ([2]; ΔramRΔ35/36, ΔramRΔompK35/36 mutant): 2 µg/mL (≈ 3.66 µM)
- MIC ([2]; ΔramRΔ36, ΔramRΔompK36 mutant): 2 µg/mL (≈ 3.66 µM)
- MIC ([3]; IMP-8 on pACYC177, WT (NVT1001), read-out: MIC): > 256 µg/mL
- MIC ([3]; IMP-8 on pACYC177, Δ35 (ΔompK35 mutant)): > 256 µg/mL
- MIC ([3]; IMP-8 on pACYC177, Δ35/36 (ΔompK35/36 mutant)): > 256 µg/mL
- MIC ([3]; IMP-8 on pACYC177, Δ36 (ΔompK36 mutant)): > 256 µg/mL
- MIC ([3]; IMP-8 on pACYC177, ΔramR mutant): > 256 µg/mL
- MIC ([3]; IMP-8 on pACYC177, ΔramRΔ35 (ΔramRΔompK35 mutant)): > 256 µg/mL
- MIC ([3]; IMP-8 on pACYC177, ΔramRΔ35/36 (ΔramRΔompK35/36 mutant)): > 256 µg/mL
- MIC ([3]; IMP-8 on pACYC177, ΔramRΔ36 (ΔramRΔompK36 mutant)): > 256 µg/mL
- MIC ([3]; KPC-2 on pACYC177, WT (NVT1001), read-out: MIC): 16 µg/mL
- MIC ([3]; KPC-2 on pACYC177, Δ35 (ΔompK35 mutant)): 64 µg/mL
- MIC ([3]; KPC-2 on pACYC177, Δ35/36 (ΔompK35/36 mutant)): 256 µg/mL
- MIC ([3]; KPC-2 on pACYC177, Δ36 (ΔompK36 mutant)): 32 µg/mL
- MIC ([3]; KPC-2 on pACYC177, ΔramR mutant): 128 µg/mL
- MIC ([3]; KPC-2 on pACYC177, ΔramRΔ35 (ΔramRΔompK35 mutant)): 128 µg/mL
- MIC ([3]; KPC-2 on pACYC177, ΔramRΔ35/36 (ΔramRΔompK35/36 mutant)): 128 µg/mL
- MIC ([3]; KPC-2 on pACYC177, ΔramRΔ36 (ΔramRΔompK36 mutant)): 128 µg/mL
- MIC ([3]; KPC-3 on pACYC177, WT (NVT1001), read-out: MIC): 128 µg/mL
- MIC ([3]; KPC-3 on pACYC177, Δ35 (ΔompK35 mutant)): > 256 µg/mL
- MIC ([3]; KPC-3 on pACYC177, Δ35/36 (ΔompK35/36 mutant)): > 256 µg/mL
- MIC ([3]; KPC-3 on pACYC177, Δ36 (ΔompK36 mutant)): 128 µg/mL
- MIC ([3]; KPC-3 on pACYC177, ΔramR mutant): > 256 µg/mL
- MIC ([3]; KPC-3 on pACYC177, ΔramRΔ35 (ΔramRΔompK35 mutant)): > 256 µg/mL
- MIC ([3]; KPC-3 on pACYC177, ΔramRΔ35/36 (ΔramRΔompK35/36 mutant)): > 256 µg/mL
- MIC ([3]; KPC-3 on pACYC177, ΔramRΔ36 (ΔramRΔompK36 mutant)): > 256 µg/mL
- MIC ([3]; NDM-1 on pACYC177, WT (NVT1001), read-out: MIC): > 256 µg/mL
- MIC ([3]; NDM-1 on pACYC177, Δ35 (ΔompK35 mutant)): > 256 µg/mL
- MIC ([3]; NDM-1 on pACYC177, Δ35/36 (ΔompK35/36 mutant)): > 256 µg/mL
- MIC ([3]; NDM-1 on pACYC177, Δ36 (ΔompK36 mutant)): > 256 µg/mL
- MIC ([3]; NDM-1 on pACYC177, ΔramR mutant): > 256 µg/mL
- MIC ([3]; NDM-1 on pACYC177, ΔramRΔ35 (ΔramRΔompK35 mutant)): > 256 µg/mL
- MIC ([3]; NDM-1 on pACYC177, ΔramRΔ35/36 (ΔramRΔompK35/36 mutant)): > 256 µg/mL
- MIC ([3]; NDM-1 on pACYC177, ΔramRΔ36 (ΔramRΔompK36 mutant)): > 256 µg/mL
- MIC ([3]; OXA-48 on pACYC177, WT (NVT1001), read-out: MIC): 0.5 µg/mL
- MIC ([3]; OXA-48 on pACYC177, Δ35 (ΔompK35 mutant)): 1 µg/mL
- MIC ([3]; OXA-48 on pACYC177, Δ35/36 (ΔompK35/36 mutant)): 2 µg/mL
- MIC ([3]; OXA-48 on pACYC177, Δ36 (ΔompK36 mutant)): 0.5 µg/mL
- MIC ([3]; OXA-48 on pACYC177, ΔramR mutant): 2 µg/mL
- MIC ([3]; OXA-48 on pACYC177, ΔramRΔ35 (ΔramRΔompK35 mutant)): 2 µg/mL
- MIC ([3]; OXA-48 on pACYC177, ΔramRΔ35/36 (ΔramRΔompK35/36 mutant)): 2 µg/mL
- MIC ([3]; OXA-48 on pACYC177, ΔramRΔ36 (ΔramRΔompK36 mutant)): 2 µg/mL
- MIC ([3]; VIM-1 on pACYC177, WT (NVT1001), read-out: MIC): > 256 µg/mL
- MIC ([3]; VIM-1 on pACYC177, Δ35 (ΔompK35 mutant)): > 256 µg/mL
- MIC ([3]; VIM-1 on pACYC177, Δ35/36 (ΔompK35/36 mutant)): > 256 µg/mL
- MIC ([3]; VIM-1 on pACYC177, Δ36 (ΔompK36 mutant)): > 256 µg/mL
- MIC ([3]; VIM-1 on pACYC177, ΔramR mutant): > 256 µg/mL
- MIC ([3]; VIM-1 on pACYC177, ΔramRΔ35 (ΔramRΔompK35 mutant)): > 256 µg/mL
- MIC ([3]; VIM-1 on pACYC177, ΔramRΔ35/36 (ΔramRΔompK35/36 mutant)): > 256 µg/mL
- MIC ([3]; VIM-1 on pACYC177, ΔramRΔ36 (ΔramRΔompK36 mutant)): > 256 µg/mL
- MIC ([3]; no supplemental plasmid, WT (NVT1001), read-out: MIC): 0.25 µg/mL
- MIC ([3]; no supplemental plasmid, Δ35 (ΔompK35 mutant)): 0.5 µg/mL
- MIC ([3]; no supplemental plasmid, Δ35/36 (ΔompK35/36 mutant)): 1 µg/mL
- MIC ([3]; no supplemental plasmid, Δ36 (ΔompK36 mutant)): 0.5 µg/mL
- MIC ([3]; no supplemental plasmid, ΔramR mutant): 2 µg/mL
- MIC ([3]; no supplemental plasmid, ΔramRΔ35 (ΔramRΔompK35 mutant)): 2 µg/mL
- MIC ([3]; no supplemental plasmid, ΔramRΔ35/36 (ΔramRΔompK35/36 mutant)): 2 µg/mL
- MIC ([3]; no supplemental plasmid, ΔramRΔ36 (ΔramRΔompK36 mutant)): 2 µg/mL

From patent US10760110B2, “Antibiotic testing and screening system” (priority 2017, dated 2020)
